# Measured values published in PubChem BioAssay (NCI).
#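 Tested at 5 concentrations; 48 h exposure; 96-well plates; endpoints linearly interpolated, else capped at highest concentration. GI50 marks 50% less growth. TGI denotes the concentration required for complete inhibition of growth.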
# What was measured:
# Assay in all cases: NCI anticancer screen, dose series, 48 h
# [1] = tested on: 786-0 renal
# [2] = tested on: A498 renal
# [3] = tested on: A549 NSCLC
# [4] = tested on: ACHN renal
# [5] = tested on: BT-549 breast
# [6] = tested on: CAKI-1 renal
# [7] = tested on: CCRF-CEM leukemia
# [8] = tested on: COLO 205 colon
# [9] = tested on: DU-145 prostate
# [10] = tested on: EKVX NSCLC
# [11] = tested on: HCC-2998 colon
# [12] = tested on: HCT-116 colon
# [13] = tested on: HL-60(TB) leukemia
# [14] = tested on: HOP-62 NSCLC
# [15] = tested on: HOP-92 NSCLC
# [16] = tested on: HS 578T breast
# [17] = tested on: HT29 colon
# [18] = tested on: IGROV1 ovarian
# [19] = tested on: K-562 leukemia
# [20] = tested on: KM12 colon
# [21] = tested on: LOX IMVI melanoma
# [22] = tested on: M14 melanoma
# [23] = tested on: MCF7 breast
# [24] = tested on: MDA-MB-231 breast
# [25] = tested on: MDA-MB-435
# [26] = tested on: MOLT-4 leukemia
# [27] = tested on: NCI-H226 lung
# [28] = tested on: NCI-H23 lung
# [29] = tested on: NCI-H460 lung
# [30] = tested on: NCI-H522 lung
# [31] = tested on: NCI/ADR-RES ovarian
# [32] = tested on: OVCAR-3 ovarian
# [33] = tested on: OVCAR-5 ovarian
# [34] = tested on: OVCAR-8 ovarian
# [35] = tested on: PC-3 prostate
# [36] = tested on: RPMI-8226 leukemia
# [37] = tested on: RXF 393 renal
# [38] = tested on: SF-268 CNS
# [39] = tested on: SF-295 CNS
# [40] = tested on: SF-539 CNS
# [41] = tested on: SK-MEL-2 melanoma
# [42] = tested on: SK-MEL-28 melanoma
# [43] = tested on: SK-MEL-5 melanoma
# [44] = tested on: SK-OV-3 ovarian
# [45] = tested on: SN12C renal
# [46] = tested on: SNB-19 CNS
# [47] = tested on: SNB-75 CNS
# [48] = tested on: SR leukemia
# [49] = tested on: SW-620 colon
# [50] = tested on: T-47D breast
# [51] = tested on: TK-10 renal
# [52] = tested on: U251 CNS
# [53] = tested on: UACC-257 melanoma
# [54] = tested on: UACC-62 melanoma
# [55] = tested on: UO-31 renal
smiles,measurement,setting,value
CN(C)CCNc1nc2ccccc2c2[nH]c3ccccc3c12,GI50,[1],396 nM
same,TGI,[1],2510 nM
same,GI50,[2],5320 nM
same,TGI,[2],11000 nM
same,GI50,[3],370 nM
same,TGI,[3],10100 nM
same,GI50,[4],190 nM
same,TGI,[4],1210 nM
same,GI50,[5],2580 nM
same,TGI,[5],8830 nM
same,GI50,[6],344 nM
same,TGI,[6],1760 nM
same,GI50,[7],937 nM
same,TGI,[7],3950 nM
same,GI50,[8],316 nM
same,TGI,[8],1090 nM
same,GI50,[9],1060 nM
same,TGI,[9],6930 nM
same,GI50,[10],1700 nM
same,TGI,[10],14300 nM
same,GI50,[11],483 nM
same,TGI,[11],2380 nM
same,GI50,[12],106 nM
same,TGI,[12],2250 nM
same,GI50,[13],1550 nM
same,TGI,[13],3770 nM
same,GI50,[14],203 nM
same,TGI,[14],1800 nM
same,GI50,[15],464 nM
same,TGI,[15],2420 nM
same,GI50,[16],4010 nM
same,TGI,[16],13600 nM
same,GI50,[17],188 nM
same,TGI,[17],> 77100 nM
same,GI50,[18],970 nM
same,TGI,[18],> 31700 nM
same,GI50,[19],748 nM
same,TGI,[19],9230 nM
same,GI50,[20],328 nM
same,TGI,[20],2920 nM
same,GI50,[21],301 nM
same,TGI,[21],1110 nM
same,GI50,[22],410 nM
same,TGI,[22],1710 nM
same,GI50,[23],129 nM
same,TGI,[23],941 nM
same,GI50,[24],1220 nM
same,TGI,[24],3990 nM
same,GI50,[25],420 nM
same,TGI,[25],1710 nM
same,GI50,[26],571 nM
same,TGI,[26],2370 nM
same,GI50,[27],587 nM
same,TGI,[27],4740 nM
same,GI50,[28],960 nM
same,TGI,[28],4650 nM
same,GI50,[29],244 nM
same,TGI,[29],1970 nM
same,GI50,[30],1330 nM
same,GI50,[31],1020 nM
same,TGI,[31],7860 nM
same,GI50,[32],438 nM
same,TGI,[32],2010 nM
same,GI50,[33],1560 nM
same,TGI,[33],21900 nM
same,GI50,[34],535 nM
same,TGI,[34],9930 nM
same,GI50,[35],574 nM
same,TGI,[35],2800 nM
same,GI50,[36],648 nM
same,TGI,[36],1970 nM
same,GI50,[37],1270 nM
same,TGI,[37],5410 nM
same,GI50,[38],293 nM
same,TGI,[38],1820 nM
same,GI50,[39],439 nM
same,TGI,[39],2910 nM
same,GI50,[40],891 nM
same,TGI,[40],3060 nM
same,GI50,[41],2440 nM
same,TGI,[41],20900 nM
same,GI50,[42],1980 nM
same,TGI,[42],6440 nM
same,GI50,[43],1610 nM
same,TGI,[43],3940 nM
same,GI50,[44],1720 nM
same,TGI,[44],13900 nM
same,GI50,[45],693 nM
same,TGI,[45],2820 nM
same,GI50,[46],1040 nM
same,TGI,[46],8000 nM
same,GI50,[47],1220 nM
same,TGI,[47],3200 nM
same,GI50,[48],341 nM
same,TGI,[48],1310 nM
same,GI50,[49],764 nM
same,TGI,[49],19700 nM
same,GI50,[50],15800 nM
same,TGI,[50],92200 nM
same,GI50,[51],429 nM
same,TGI,[51],1950 nM
same,GI50,[52],386 nM
same,TGI,[52],2040 nM
same,GI50,[53],3740 nM
same,TGI,[53],16900 nM
same,GI50,[54],1360 nM
same,TGI,[54],3550 nM
same,GI50,[55],1010 nM
same,TGI,[55],13000 nM
